Experiments:
corn = assay: Post-emergence safener action in corn with the herbicide tembotrione; format: in vivo; details: greenhouse, visual scoring of damage
Description: (§1) The damage to the plants is scored visually using a scale of 0-100%, in comparison to control plants:
(§2) 0%=no noticeable effect compared to the untreated plant
(§3) 100%=the treated plants dies.
(§4) Seeds or rhizome pieces of monocotyledonous and dicotyledonous harmful plants and crop plants are placed in sandy loam soil in plastic pots, covered with soil and cultivated in the greenhouse under good growth conditions. Alternatively, harmful plants encountered in paddy rice cultivation are cultivated in pots in which the surface of the soil is covered by up to 2 cm of water. Three weeks after sowing, the test plants are treated at the three-leaf stage. The herbicide/safener active compound combinations according to the invention, formulated as emulsion concentrates, and in parallel tests the individual active compounds formulated in a corresponding manner, are sprayed at various dosages at a water application rate of […] (converted) onto the green parts of the plants, and, after the test plants were left to stand in the greenhouse for about 2 to 3 weeks under optimum growth conditions, the effect of the preparations is scored visually in comparison to untreated controls. In the case of rice or harmful plants encountered in the cultivation of rice, the active compounds are also added directly to the irrigation water (application analogously to the so-called granule application) or sprayed onto the plants and into the irrigation water. […]

barley = assay: Post-emergence safener action in barley with the herbicide mesosulfuron-methyl; format: in vivo; details: greenhouse, visual scoring of damage
Description: as §1, §2, §3, §4

| SMILES | safener action for the herbicide tembotrione (corn) | safener action for the herbicide mesosulfuron-methyl (barley) |
| --- | --- | --- |
| CC(C)NC(=O)c1ccc(C(F)(F)C(F)(F)C(F)(F)F)[nH]c1=O [Compound 1599] | good safener action | good safener action |
| CNC(=O)c1cc(Cl)c(C(F)(F)F)[nH]c1=O [Compound 456] | good safener action | – |
| CN(C)C(=O)c1ccc(C(F)(F)F)[nH]c1=O [Compound 9] | good safener action | good safener action |
| CC(C)CCNC(=O)c1ccc(C(F)(F)Cl)[nH]c1=O [Compound 146] | good safener action | good safener action |
| CC(C)NC(=O)c1ccc(C(F)(F)C(F)(F)F)[nH]c1=O [Compound 345] | good safener action | good safener action |
| O=C(NCc1ccc(Cl)nc1)c1ccc(C(F)(F)F)[nH]c1=O [Compound 95] | good safener action | – |
| CC(C)(C)CNC(=O)c1ccc(C(F)(F)F)[nH]c1=O [Compound 24] | good safener action | – |
| CC(C)NC(=O)c1ccc(C(F)(F)C(F)F)[nH]c1=O [Compound 1371] | good safener action | – |
| CC(C)NC(=O)c1cc(Br)c(C(F)(F)F)[nH]c1=O [Compound 913] | good safener action | good safener action |
| CNC(=O)c1ccc(C(F)(F)C(F)(F)C(F)(F)F)[nH]c1=O [Compound 1596] | good safener action | – |
| O=C(NCC(F)(F)F)c1ccc(C(F)(F)Cl)[nH]c1=O [Compound 140] | good safener action | good safener action |
| CC(NC(=O)c1ccc(C(F)(F)Cl)[nH]c1=O)c1ccccc1 (centres unmarked) [Compound 210] | good safener action | – |
| C=CCNC(=O)c1ccc(C(F)(F)F)[nH]c1=O [Compound 34] | good safener action | good safener action |
| CCCC(C)NC(=O)c1ccc(C(F)(F)F)[nH]c1=O (centres unmarked) [Compound 43] | good safener action | – |
| CC(C)(C)CNC(=O)c1ccc(C(F)(F)C(F)(F)C(F)(F)F)[nH]c1=O [Compound 1619] | good safener action | – |
| C#CCNC(=O)c1ccc(C(F)(F)Cl)[nH]c1=O [Compound 153] | good safener action | good safener action |
| CCOC(CNC(=O)c1ccc(C(F)(F)Cl)[nH]c1=O)OCC [Compound 169] | good safener action | good safener action |
| NC(=O)c1ccc(C(F)(F)Cl)[nH]c1=O [Compound 114] | good safener action | good safener action |
| CCCC(C)NC(=O)c1ccc(C(F)(F)C(F)(F)C(F)(F)F)[nH]c1=O (centres unmarked) [Compound 1638] | good safener action | – |
| CN(C)C(=O)c1ccc(C(F)(F)C(F)(F)C(F)(F)F)[nH]c1=O [Compound 1604] | good safener action | – |
| CCN(C)C(=O)c1ccc(C(F)(F)F)[nH]c1=O [Compound 10] | good safener action | good safener action |
| CCNC(=O)c1cc(Cl)c(C(F)(F)F)[nH]c1=O [Compound 457] | good safener action | good safener action |
| CCC(C)NC(=O)c1cc(Cl)c(C(F)(F)F)[nH]c1=O (centres unmarked) [Compound 496] | good safener action | good safener action |
| C=CCNC(=O)c1cc(Cl)c(C(F)(F)F)[nH]c1=O [Compound 489] | good safener action | good safener action |
| O=C(NC1CCC1)c1cc(Br)c(C(F)(F)C(F)(F)C(F)(F)F)[nH]c1=O [Compound 1758] | good safener action | – |
| CCNC(=O)c1cc(Br)c(C(F)(F)F)[nH]c1=O [Compound 911] | good safener action | good safener action |
| CC(C)NC(=O)c1ccc(C(F)(F)C(F)(F)Cl)[nH]c1=O [Compound 1485] | good safener action | – |

| SMILES | safener action for the herbicide tembotrione (corn) | safener action for the herbicide mesosulfuron-methyl (barley) |
| --- | --- | --- |
| COC(=O)CNC(=O)c1ccc(C(F)(F)F)[nH]c1=O [Compound 71] | good safener action | – |
| CC(C)NC(=O)c1ccc(C(F)(F)Cl)[nH]c1=O [Compound 118] | good safener action | – |
| C=CCNC(=O)c1cc(Br)c(C(F)(F)F)[nH]c1=O [Compound 943, N-Allyl-5-bromo-2-oxo-6-(trifluoromethyl)-1,2-dihydropyridine-3-carboxamide] | good safener action | good safener action |
| CCC(CC)NC(=O)c1ccc(C(F)(F)F)[nH]c1=O [Compound 51] | good safener action | – |
| O=C(NC1CCC1)c1ccc(C(F)(F)C(F)(F)Cl)[nH]c1=O [Compound 1488] | good safener action | – |
| COC(=O)CCNC(=O)c1ccc(C(F)(F)F)[nH]c1=O [Compound 75] | good safener action | – |
| COCC(C)NC(=O)c1ccc(C(F)(F)Cl)[nH]c1=O (centres unmarked) [Compound 178] | good safener action | good safener action |
| COCCCNC(=O)c1ccc(C(F)(F)F)[nH]c1=O [Compound 66] | good safener action | good safener action |
| C=CCNC(=O)c1ccc(C(F)(F)Cl)[nH]c1=O [Compound 148] | good safener action | good safener action |
| CC(C)NC(=O)c1ccc(C(F)(F)F)[nH]c1=O [Compound 4] | good safener action | – |
| CCONC(=O)c1ccc(C(F)(F)F)[nH]c1=O [Compound 79] | good safener action | good safener action |
| CCCCNC(=O)c1ccc(C(F)(F)F)[nH]c1=O [Compound 6] | good safener action | – |
| COCC(C)NC(=O)c1ccc(C(F)(F)F)[nH]c1=O (centres unmarked) [Compound 64] | good safener action | good safener action |
| CCC(CC)NC(=O)c1cc(Br)c(C(F)(F)F)[nH]c1=O [Compound 960] | good safener action | good safener action |
| CCC(CC)NC(=O)c1ccc(C(F)(F)C(F)(F)C(F)(F)F)[nH]c1=O [Compound 1646] | good safener action | – |
| CCCNC(=O)c1cc(Br)c(C(F)(F)Cl)[nH]c1=O [Compound 1026] | good safener action | good safener action |
| CCN(CC)C(=O)c1ccc(C(F)(F)F)[nH]c1=O [Compound 14] | good safener action | good safener action |
| C=CCNC(=O)c1ccc(C(F)(F)C(F)(F)C(F)(F)F)[nH]c1=O [Compound 1629] | good safener action | – |
| CCCC(C)NC(=O)c1cc(Cl)c(C(F)(F)F)[nH]c1=O (centres unmarked) [Compound 498] | good safener action | good safener action |
| CC(C)CCNC(=O)c1ccc(C(F)(F)F)[nH]c1=O [Compound 32] | good safener action | – |
| O=C(c1ccc(C(F)(F)Cl)[nH]c1=O)N1CCOCC1 [Compound 214] | good safener action | good safener action |
| O=C(NC1CC1)c1ccc(C(F)(F)C(F)(F)C(F)(F)F)[nH]c1=O [Compound 1600] | good safener action | good safener action |
| NC(=O)c1cc(Br)c(C(F)(F)F)[nH]c1=O [Compound 909] | good safener action | good safener action |
| CCNC(=O)c1cc(Br)c(C(F)F)[nH]c1=O [Compound 1139] | good safener action | – |
| CN(C)/C=N/C(=O)c1ccc(C(F)(F)F)[nH]c1=O [Compound 105, N-[(Dimethylamino)methylene]-2-oxo-6-(trifluoromethyl)-1,2-dihydropyridine-3-carboxamide] | good safener action | good safener action |
| CCCNC(=O)c1ccc(C(F)(F)C(F)(F)C(F)(F)F)[nH]c1=O [Compound 1598, 6-(Heptafluoropropyl)-2-oxo-N-propyl-1,2-dihydropyridine-3-carboxamide] | good safener action | good safener action |
